From BindingDB's records for patent US20240059728 (Galecto Biotech, 2024)

Experiments:
Galectin-1 = Galectin-1 (Homo sapiens, UniProt P09382); assay: Evaluation of Kd Values
Experimental: (§1) The affinity of Example 1-14 for galectins were determined by a fluorescence anisotropy assay where the compound was used as an inhibitor of the interaction between galectin and a fluorescein tagged saccharide probe as described S rme, P., Kahl-Knutsson, B., Huflejt, M., Nilsson, U. J., and Leffler H. (2004) Fluorescence polarization as an analytical tool to evaluate galectin-ligand interactions. Anal. Biochem. 334: 36-47, (Sarme et al., 2004) and Monovalent interactions of Galectin-1 By Salomonsson, Emma; Larumbe, Amaia; Tejler, Johan; Tullberg, Erik; Rydberg, Hanna; Sundin, Anders; Khabut, Areej; Frejd, Torbjorn; Lobsanov, Yuri D.; Rini, James M.; et al, From Biochemistry (2010), 49(44), 9518-9532, (Salomonsson et al., 2010).

Galectin-3 = Galectin-3 (Homo sapiens, UniProt P17931); assay: Evaluation of Kd Values
Sequence of Galectin-3 (P17931 whole entry): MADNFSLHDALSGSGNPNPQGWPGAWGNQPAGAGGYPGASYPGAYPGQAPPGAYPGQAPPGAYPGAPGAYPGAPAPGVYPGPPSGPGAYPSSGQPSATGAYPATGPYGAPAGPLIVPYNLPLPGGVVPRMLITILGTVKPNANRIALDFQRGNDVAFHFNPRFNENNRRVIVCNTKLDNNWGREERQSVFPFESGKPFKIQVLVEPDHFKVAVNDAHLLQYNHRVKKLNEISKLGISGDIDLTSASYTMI
Experimental: as §1

Sequence of Galectin-1 (P09382 whole entry): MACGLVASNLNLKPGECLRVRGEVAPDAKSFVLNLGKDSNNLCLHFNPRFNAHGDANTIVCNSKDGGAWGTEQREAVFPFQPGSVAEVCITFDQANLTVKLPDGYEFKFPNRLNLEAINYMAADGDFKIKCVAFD

Row | SMILES | Kd (Galectin-1) | Kd (Galectin-3)
1 | OCC1O[C@@H](S[C@@H]2O[C@H](CO)C(O)C(n3cc(-c4cc(F)c(F)c(F)c4)cn3)[C@H]2O)C(O)[C@@H](n2cc(-c3cc(F)c(F)c(F)c3)cn2)[C@H]1O (some centres undefined) [US20240059728, Example 5] | 890 nM | 6 nM
2 | OCC1O[C@@H](S[C@@H]2O[C@H](CO)C(O)C(n3cc(-c4cccc(F)c4)cn3)[C@H]2O)C(O)[C@@H](n2cc(-c3cccc(F)c3)cn2)[C@H]1O (some centres undefined) [US20240059728, Example 4] | 780 nM | < 10 nM
